Laboratory results: patent US4000147A, “Anhydro-2-mercapto-1,3,4-thiadiazolium hydroxides” (BASF Aktiengesellschaft, priority 1974, dated 1976)
Read-outs that look alike come from different tables or passages of the source.

What was measured:
[1] = acute toxicity, intraperitoneal (Table 2); details: mouse, in vivo, ip, mice, approximate values
Source text: ^2) Mice. Intraperitoneal administration. Approximate values

[2] = system: clonic cramps caused by Pentetrazol; experiment: anti-convulsive action against clonic spasms caused by Pentetrazol (60 mg/kg s.c.), inclined screen (Table 2); assay type: in vivo, female Swiss mice; details: Mus musculus, mice, oral, 30 minutes before s.c. 60 mg/kg Pentetrazol
Protocol: As a pharmacological test of the anti-convulsive action against clonic spasms caused by Pentetrazol, the test substances were administered orally to groups of from 8 to 10 female Swiss mice weighing from 20 to 25 g, 30 minutes before subcutaneous administration of 60 mg/kg of Pentetrazol.
In the untreated animals, this dose of Pentetrazol caused clonic cramps, as a result of which the mice slid off an inclined screen.
Anti-convulsive agents prevent the cramps and the sliding off the screen, the degree of prevention depending on the dose. The ED50 was taken to be the dose after administration of which 50% of the treated animals remained on the screen.
^1) Action against clonic cramps caused by Pentetrazol in mice. Oral
administration 30 minutes before subcutaneous administration of 60 mg/kg

[3] = system: maximum electric shock; experiment: maximum tonic electro-induced cramp (Table 3); assay type: in vivo, mice; details: for ED50: Mus musculus, read-out: Maximum electric shock, ED50
[4] = system: minimum Pentetrazol-induced cramp; experiment: minimum clonic cramp after subcutaneous administration of 70 mg/kg of Pentetrazol (Table 3); assay type: in vivo, mice; details: for ED50: Mus musculus, 0.75 h, read-out: Minimum Pentetrazol-induced cramp, ED50
[5] = system: maximum Pentetrazol-induced extension; experiment: maximum tonic extension spasm after subcutaneous administration of 121 mg/kg of Pentetrazol (Table 3); assay type: in vivo, mice; details: for ED50: Mus musculus, read-out: Maximum Pentetrazol-induced extension, ED50
[6] = in vivo; details: for LD50: mouse, in vivo
Protocol: The comparative experiments in Table 3 were carried out with anhydro-2-mercapto-4-methyl-5-(3'-chlorophenyl)-1,3,4-thiadiazolium hydroxide, referred to as substance A in the Table and in the subsequent text.

[7] = mice, oral, tonic cramps induced by electric shock
[8] = mice, oral, 70 mg/kg Pentetrazol s.c., observed 45 minutes after Pentetrazol
[9] = mice, oral, 121 mg/kg Pentetrazol s.c.

With `C[n+]1nc([S-])sc1-c1cccc(Cl)c1` [drawing 15] as the compound, how does the LD50 [1] read?
The LD50 was over 1000 mg/kg.

What about the ED50 [2] of the same compound?
The ED50 was 3.2 mg/kg.

With `C[n+]1nc([S-])sc1-c1ccc(Br)cc1` as the compound, how does the LD50 [1] read?
Its LD50 is over 1000 mg/kg.

And the ED50 [2]?
The ED50 was 46 mg/kg.

With `CCC[n+]1nc([S-])sc1-c1ccc(Cl)cc1` as the compound, how does the LD50 [1] read?
The LD50 was 681 mg/kg.

And the ED50 [2]?
The ED50 was 32 mg/kg.

With `CCC[n+]1nc([S-])sc1-c1ccccc1` as the compound, how does the LD50 [1] read?
The LD50 was 68.1 mg/kg.

And the ED50 [2]?
Its ED50 is 22 mg/kg.

With `C[n+]1nc([S-])sc1-c1cccc(F)c1` as the compound, how does the LD50 [1] read?
Its LD50 is 1000 mg/kg.

What about the ED50 [2] of the same compound?
The ED50 was 2.2 mg/kg.

Which results are given for `C[n+]1nc([S-])sc1-c1ccccc1F`?
LD50 [1]: > 1000 mg/kg; ED50 [2]: 10 mg/kg

With `O=C1NC(=O)C(c2ccccc2)(c2ccccc2)N1` [Phenytoin] as the compound, how does the ED50 [3, 7] read?
Its ED50 is 8 mg/kg.

What about the “activity against clonic spasms induced by Pentetrazol” value ([4]; in words) of the same compound?
Its value is “inactive”.

And the “Minimum Pentetrazol-induced cramp, ED50” value [4, 8]?
Its value is “inactive”.

And the ED50 [5, 9]?
Its ED50 is 22 mg/kg.

With `C[n+]1nc([S-])sc1-c1cccc(C(F)(F)F)c1` as the compound, how does the LD50 [1] read?
The LD50 was 681 mg/kg.

What about the ED50 [2] of the same compound?
Its ED50 is 0.46 mg/kg.

Which results are given for `CCC1(c2ccccc2)C(=O)NC(=O)NC1=O` [Phenobarbital]?
ED50 ([3]; po): 11 mg/kg; activity in cramp induced by electric shock, relative to substance A ([3]; in words): about twice as active; ED50 ([4]; po): 30 mg/kg; ED50 ([5]; po): 22 mg/kg; activity in tonic cramp induced by Pentetrazol, relative to substance A ([5]; in words): about twice as active; LD50 [6]: 320 mg/kg

What does the source list for `C[n+]1nc([S-])sc1-c1cccc(Cl)c1` [Substance A, anhydro-2-mercapto-4-methyl-5-(3'-chlorophenyl)-1,3,4-thiadiazolium hydroxide]?
ED50 [3, 7]: 23 mg/kg; ED50 [4, 8]: 7 mg/kg; activity in counteracting clonic spasms induced by Pentetrazol, compared with Phenobarbital and Phenytoin ([4]; in words): more active in counteracting clonic spasms induced by Pentetrazol than is Phenobarbital and above all than is Phenytoin; ED50 [5, 9]: 10 mg/kg; toxicity compared with Phenobarbital and Phenytoin ([6]; in words): markedly less than that of Phenobarbital and Phenytoin; LD50 [6]: > 1000 mg/kg

Which results are given for `C[n+]1nc([S-])sc1-c1ccc(F)cc1`?
LD50 [1]: > 1000 mg/kg; ED50 [2]: 2.2 mg/kg

With `CN1C(=O)OC(C)(C)C1=O` [Trimethadion] as the compound, how does the ED50 [3, 7] read?
Its ED50 is 450 mg/kg.

What about the ED50 [4, 8] of the same compound?
Its ED50 is 240 mg/kg.

What about the “times less active than substance A, clonic cramp test” value ([4]; clonic cramp test) of the same compound?
Its value is “more than 20 times”.

What about the ED50 [5, 9] of the same compound?
The ED50 was 260 mg/kg.

What about the “times less active than substance A, tonic cramp test” value ([5]; tonic cramp test) of the same compound?
Its value is “more than 20 times”.

And the LD50 [6]?
Its LD50 is over 1000 mg/kg.
